# Data: ChEMBL document CHEMBL3046801, “Synthesis of 2-R1-2-(4-(2-fluoroethoxy)benzamido)acetate as potential PET imaging agents” (Med Chem Res, 2012)
# How the values were obtained:
# Heart [1] = assay: Biodistribution in tumor bearing Mus musculus KM (mouse) heart at 3.7 MBq, iv measured at 30 min by microPET imaging analysis; format: ADME, organism-based; conditions: in vivo, 0.5 h
# Kidney [2] = assay: Biodistribution in tumor bearing Mus musculus KM (mouse) kidney at 3.7 MBq, iv by microPET imaging analysis; format: ADME, organism-based; conditions: in vivo, TDE = time-dependent effect
# [3] = Chemical stability in sodium chloride up to 2 hr by HPLC analysis; format: physicochemical
# Tumour [4] = assay: Biodistribution in tumor of Mus musculus KM (mouse) at 3.7 MBq, iv measured at 60 min by microPET imaging analysis; format: ADME, organism-based, Neoplasm; conditions: in vivo, 1 h
# Kidney [5] = assay: Biodistribution in tumor bearing Mus musculus KM (mouse) kidney at 3.7 MBq, iv measured at 30 min by microPET imaging analysis; format: ADME, organism-based; conditions: in vivo, 0.5 h
# Liver [6] = assay: Biodistribution in tumor bearing Mus musculus KM (mouse) liver at 3.7 MBq, iv measured at 5 min by microPET imaging analysis; format: ADME, organism-based; conditions: in vivo
# Spleen [7] = assay: Biodistribution in tumor bearing Mus musculus KM (mouse) spleen at 3.7 MBq, iv measured at 120 min by microPET imaging analysis; format: ADME, organism-based; conditions: in vivo, 2 h
# Brain [8] = assay: Biodistribution in tumor bearing Mus musculus KM (mouse) brain at 3.7 MBq, iv measured at 30 min by microPET imaging analysis; format: ADME, organism-based; conditions: in vivo, 0.5 h
# Blood [9] = assay: Biodistribution in tumor bearing Mus musculus KM (mouse) blood at 3.7 MBq, iv measured at 120 min by microPET imaging analysis; format: ADME, organism-based; conditions: in vivo, 2 h
# Kidney [10] = assay: Biodistribution in tumor bearing Mus musculus KM (mouse) kidney at 3.7 MBq, iv measured at 5 min by microPET imaging analysis; format: ADME, organism-based; conditions: in vivo
# Liver [11] = assay: Biodistribution in tumor bearing Mus musculus KM (mouse) liver at 3.7 MBq, iv measured at 30 min by microPET imaging analysis; format: ADME, organism-based; conditions: in vivo, 0.5 h
# Tumour [12] = assay: Biodistribution in tumor of Mus musculus KM (mouse) at 3.7 MBq, iv measured at 5 min by microPET imaging analysis; format: ADME, organism-based, Neoplasm; conditions: in vivo
# Muscle tissue [13] = assay: Biodistribution in tumor bearing Mus musculus KM (mouse) muscle at 3.7 MBq, iv measured at 5 min by microPET imaging analysis; format: ADME, organism-based; conditions: in vivo
# Brain [14] = assay: Biodistribution in tumor bearing Mus musculus KM (mouse) brain at 3.7 MBq, iv measured at 5 min by microPET imaging analysis; format: ADME, organism-based; conditions: in vivo
# Blood [15] = assay: Biodistribution in tumor bearing Mus musculus KM (mouse) blood at 3.7 MBq, iv measured at 30 min by microPET imaging analysis; format: ADME, organism-based; conditions: in vivo, 0.5 h
# Liver [16] = assay: Clearance in tumor-bearing Mus musculus KM (mouse) liver at 3.7 MBq, iv measured at 60 min; format: ADME, organism-based; conditions: in vivo, 1 h
# Muscle tissue [17] = assay: Biodistribution in tumor bearing Mus musculus KM (mouse) muscle at 3.7 MBq, iv measured at 15 min by microPET imaging analysis; format: ADME, organism-based; conditions: in vivo, 0.25 h
# Lung [18] = assay: Biodistribution in tumor bearing Mus musculus KM (mouse) lung at 3.7 MBq, iv measured at 5 min by microPET imaging analysis; format: ADME, organism-based; conditions: in vivo
# Muscle tissue [19] = assay: Biodistribution in tumor bearing Mus musculus KM (mouse) muscle at 3.7 MBq, iv by microPET imaging analysis; format: ADME, organism-based; conditions: in vivo, TDE = time-dependent effect
# Muscle tissue [20] = assay: Biodistribution in tumor bearing Mus musculus KM (mouse) muscle at 3.7 MBq, iv measured at 60 min by microPET imaging analysis; format: ADME, organism-based; conditions: in vivo, 1 h
# Nucleic Acid [21] = assay: Ratio of drug uptake in tumor to muscle in Mus musculus KM (mouse) at 3.7 MBq, iv at 30 min; format: ADME, organism-based; conditions: in vivo, 0.5 h
# Lung [22] = assay: Biodistribution in tumor bearing Mus musculus KM (mouse) lung at 3.7 MBq, iv measured at 60 min by microPET imaging analysis; format: ADME, organism-based; conditions: in vivo, 1 h
# Nucleic Acid [23] = assay: Ratio of drug uptake in tumor to muscle in Mus musculus KM (mouse) at 3.7 MBq, iv at 120 min; format: ADME, organism-based; conditions: in vivo, 2 h
# Muscle tissue [24] = assay: Biodistribution in tumor bearing Mus musculus KM (mouse) muscle at 3.7 MBq, iv measured at 120 min by microPET imaging analysis; format: ADME, organism-based; conditions: in vivo, 2 h
# Blood [25] = assay: Clearance in tumor-bearing Mus musculus KM (mouse) blood at 3.7 MBq, iv measured at 60 min; format: ADME, organism-based; conditions: in vivo, 1 h
# Spleen [26] = assay: Biodistribution in tumor bearing Mus musculus KM (mouse) spleen at 3.7 MBq, iv measured at 30 min by microPET imaging analysis; format: ADME, organism-based; conditions: in vivo, 0.5 h
# Liver [27] = assay: Biodistribution in tumor bearing Mus musculus KM (mouse) liver at 3.7 MBq, iv by microPET imaging analysis; format: ADME, organism-based; conditions: in vivo, TDE = time-dependent effect
# Tumour [28] = assay: Biodistribution in tumor of Mus musculus KM (mouse) at 3.7 MBq, iv measured at 120 min by microPET imaging analysis; format: ADME, organism-based, Neoplasm; conditions: in vivo, 2 h
# Tumour [29] = assay: Biodistribution in tumor of Mus musculus KM (mouse) at 3.7 MBq, iv measured at 30 min by microPET imaging analysis; format: ADME, organism-based, Neoplasm; conditions: in vivo, 0.5 h
# Liver [30] = assay: Biodistribution in tumor bearing Mus musculus KM (mouse) liver at 3.7 MBq, iv measured at 15 min by microPET imaging analysis; format: ADME, organism-based; conditions: in vivo, 0.25 h
# Heart [31] = assay: Biodistribution in tumor bearing Mus musculus KM (mouse) heart at 3.7 MBq, iv measured at 5 min by microPET imaging analysis; format: ADME, organism-based; conditions: in vivo
# Nucleic Acid [32] = assay: Ratio of drug uptake in tumor to muscle in Mus musculus KM (mouse) at 3.7 MBq, iv at 60 min; format: ADME, organism-based; conditions: in vivo, 1 h
# Brain [33] = assay: Biodistribution in tumor bearing Mus musculus KM (mouse) brain at 3.7 MBq, iv measured at 15 min by microPET imaging analysis; format: ADME, organism-based; conditions: in vivo, 0.25 h
# Tumour [34] = assay: Biodistribution in tumor of Mus musculus KM (mouse) at 3.7 MBq, iv measured at 15 min by microPET imaging analysis; format: ADME, organism-based, Neoplasm; conditions: in vivo, 0.25 h
# Muscle tissue [35] = assay: Biodistribution in tumor bearing Mus musculus KM (mouse) muscle at 3.7 MBq, iv measured at 30 min by microPET imaging analysis; format: ADME, organism-based; conditions: in vivo, 0.5 h
# Heart [36] = assay: Biodistribution in tumor bearing Mus musculus KM (mouse) heart at 3.7 MBq, iv by microPET imaging analysis; format: ADME, organism-based; conditions: in vivo, TDE = time-dependent effect
# Heart [37] = assay: Biodistribution in tumor bearing Mus musculus KM (mouse) heart at 3.7 MBq, iv measured at 60 min by microPET imaging analysis; format: ADME, organism-based; conditions: in vivo, 1 h
# [38] = Metabolic stability in serum after 1 hr by HPLC analysis; format: ADME
# Spleen [39] = assay: Biodistribution in tumor bearing Mus musculus KM (mouse) spleen at 3.7 MBq, iv measured at 60 min by microPET imaging analysis; format: ADME, organism-based; conditions: in vivo, 1 h
# Spleen [40] = assay: Biodistribution in tumor bearing Mus musculus KM (mouse) spleen at 3.7 MBq, iv measured at 15 min by microPET imaging analysis; format: ADME, organism-based; conditions: in vivo, 0.25 h
# [41] = Chemical stability in acetonitrile at 60 degC up to 30 min by HPLC analysis; format: physicochemical; conditions: 0.5 h
# Liver [42] = assay: Biodistribution in tumor bearing Mus musculus KM (mouse) liver at 3.7 MBq, iv measured at 60 min by microPET imaging analysis; format: ADME, organism-based; conditions: in vivo, 1 h
# Blood [43] = assay: Biodistribution in tumor bearing Mus musculus KM (mouse) blood at 3.7 MBq, iv measured at 15 min by microPET imaging analysis; format: ADME, organism-based; conditions: in vivo, 0.25 h
smiles,measurement,setting,value
COC(=O)CNC(=O)c1ccc(OCC[18F])cc1 [[18F]FEBA],Drug uptake,Heart [1],0.95 % ID/g
same,Drug uptake,Kidney [2],tde
same,Stability,[3],Stable
same,Drug uptake,Tumour [4],1.48 % ID/g
same,Drug uptake,Kidney [5],1.77 % ID/g
same,Drug uptake,Liver [6],4.19 % ID/g
same,Drug uptake,Spleen [7],0.6 % ID/g
same,Drug uptake,Brain [8],0.51 % ID/g
same,Drug uptake,Blood [9],0.85 % ID/g
same,Drug uptake,Kidney [10],7.25 % ID/g
same,Drug uptake,Liver [11],1.08 % ID/g
same,Drug uptake,Tumour [12],2.12 % ID/g
same,Drug uptake,Muscle tissue [13],2.02 % ID/g
same,Drug uptake,Brain [14],1.51 % ID/g
same,Drug uptake,Blood [15],1.28 % ID/g
same,CLH,Liver [16],91%
same,Drug uptake,Muscle tissue [17],1.25 % ID/g
same,Drug uptake,Lung [18],5.09 % ID/g
same,Drug uptake,Muscle tissue [19],tde
same,Drug uptake,Muscle tissue [20],0.53 % ID/g
same,Ratio,Nucleic Acid [21],1.82
same,Drug uptake,Lung [22],0.87 % ID/g
same,Ratio,Nucleic Acid [23],1.03
same,Drug uptake,Muscle tissue [24],1.17 % ID/g
same,CL,Blood [25],96%
same,Drug uptake,Spleen [26],0.79 % ID/g
same,Drug uptake,Liver [27],tde
same,Drug uptake,Tumour [28],1.21 % ID/g
same,Drug uptake,Tumour [29],1.71 % ID/g
same,Drug uptake,Liver [30],2.11 % ID/g
same,Drug uptake,Heart [31],2.64 % ID/g
same,Ratio,Nucleic Acid [32],2.8
same,Drug uptake,Brain [33],1.26 % ID/g
same,Drug uptake,Tumour [34],2.3 % ID/g
same,Drug uptake,Muscle tissue [35],0.94 % ID/g
same,Drug uptake,Heart [36],tde
same,Drug uptake,Heart [37],0.91 % ID/g
same,Stability,[38],Stable
same,Drug uptake,Spleen [39],0.64 % ID/g
same,Drug uptake,Spleen [40],1.19 % ID/g
same,Stability,[41],Stable
same,Drug uptake,Liver [42],0.73 % ID/g
same,Drug uptake,Blood [43],2.17 % ID/g
